Values quoted from earlier work as cited in patent US20240390346A1, “COMPOSITIONS FOR A DIETARY SUPPLEMENT TO MANAGE SENESCENT CELLS” (Neurohacker Collective, LLC, priority 2023, published 2024).

Tested on: senescent cells
Details: literature studies

O=c1c(O)c(-c2ccc(O)c(O)c2)oc2cc(O)ccc12 [Fisetin]
senolytic / senomorphic activity: both senolytic and senomorphic activity

O=c1cc(-c2ccc(O)c(O)c2)oc2cc(O)cc(O)c12 [Luteolin]
senolytic / senomorphic activity: senolytic activity

COc1cc(/C=C/C(=O)N2CCC=CC2=O)cc(OC)c1OC [Piperlongumine]
senolytic / senomorphic activity: senolytic activity

O=c1c(O)c(-c2ccc(O)c(O)c2)oc2cc(O)cc(O)c12 [quercetin]
senolytic / senomorphic activity: both senolytic and senomorphic
